Experimental data: patent US20130344026A1, “Dimeric Smac Mimetics” (priority 2009, published 2013)
Read-outs that look alike come from different tables or passages of the source.

Tested on: PANC-1 cells
Assay: cell viability assay in PANC-1 cells (compound alone, + 100 ng/ml TNFa, + 300 ng/ml TRAIL)
Type: cell-based
[1] = Homo sapiens, PANC-1, compound alone, Tables 6-10, read-out: IC50 (μM) in cell viability assay in PANC-1 cells: Compound alone
[2] = with 100 ng/ml TNFa, Tables 6-10, read-out: IC50 (μM) in cell viability assay in PANC-1 cells: Compound + 100 ng/ml TNFa
[3] = with 300 ng/ml TRAIL, Tables 6-10, read-out: IC50 (μM) in cell viability assay in PANC-1 cells: Compound + 300 ng/ml TRAIL
[4] = Homo sapiens, PANC-1, compound alone, Tables 15-18, read-out: IC50 (uM) in cell viability assay in PANC-1 cells: Cmpnd alone
[5] = with 100 ng/ml TNFa, Tables 15-18, read-out: IC50 (uM) in cell viability assay in PANC-1 cells: Cmpnd + 100 ng/ml TNFa
[6] = with 300 ng/ml TRAIL, Tables 15-18, read-out: IC50 (uM) in cell viability assay in PANC-1 cells: Cmpnd + 300 ng/ml TRAIL
[7] = Homo sapiens, PANC-1 cells, compound alone, read-out: IC50 (uM) in cell viability assay in PANC-1 cells, Cmpnd alone
[8] = PANC-1 cells, + 100 ng/ml TNFa, read-out: IC50 (uM) in cell viability assay in PANC-1 cells, Cmpnd + 100 ng/ml TNFa
[9] = PANC-1 cells, + 300 ng/ml TRAIL, read-out: IC50 (uM) in cell viability assay in PANC-1 cells, Cmpnd + 300 ng/ml TRAIL
[10] = compound alone, Tables 6-10, read-out: IC50 (μM) in cell viability assay in PANC-1 cells: Compound alone

| SMILES | IC50 [1] | IC50 [2] | IC50 [3] | also measured |
| --- | --- | --- | --- | --- |
| CN[C@@H](C)C(=O)N[C@@H](CCCCCC[C@H](NC(=O)[C@H](C)NC)C(=O)N[C@H]1c2ccccc2C[C@@H]1NC(=O)c1c(OC)cccc1OC)C(=O)N[C@H]1c2ccccc2C[C@@H]1NC(=O)c1c(OC)cccc1OC [Compound 59] | > 1 µM | > 1 µM | > 1 µM | – |
| CN[C@@H](C)C(=O)N[C@H](C(=O)N[C@@H](CCNC(=O)c1cc(N)cc(C(=O)N[C@H]2C[C@@H](C(=O)N[C@@H]3CCCc4ccccc43)N(C(=O)[C@@H](NC(=O)[C@H](C)NC)C(C)(C)C)C2)c1)C(=O)N[C@@H]1CCCc2ccccc21)C(C)C [Compound 183] | > 1 µM | 0.044 µM | 0.061 µM | – |
| CN[C@@H](C)C(=O)N[C@H]1CCN(C(=O)c2ccc(C(=O)N[C@H]3C[C@@H](C(=O)N[C@@H]4CCCc5ccccc54)N(C(=O)[C@@H](NC(=O)[C@H](C)NC)C(C)(C)C)C3)cc2)C1 [Compound 187] | > 1 µM | 0.62 µM | 0.6 µM | – |
| CN[C@@H](C)C(=O)N[C@@H](CCCCCC[C@H](NC(=O)[C@H](C)NC)C(=O)N1CCC[C@H]1CC(=O)N[C@H](C)c1ccccc1)C(=O)N1CCC[C@H]1CC(=O)N[C@H](C)c1ccccc1 [Compound 79] | > 1 µM | > 1 µM | > 1 µM | – |
| CN[C@@H](C)C(=O)N[C@H](C(=O)N1CCC[C@H]1C(=O)N[C@H](C)c1ccccc1)[C@H](C)NC(=O)CCCCC(=O)N[C@@H](C)[C@H](NC(=O)[C@H](C)NC)C(=O)N1CCC[C@H]1C(=O)N[C@H](C)c1ccccc1 [Compound 113] | > 1 µM | 0.208 µM | 0.203 µM | – |
| CCCC[C@@H](C)NC(=O)c1cc(C(=O)N[C@H]2C[C@@H](C(=O)N[C@@H]3CCCc4ccccc43)N(C(=O)[C@@H](NC(=O)[C@H](C)NC)C(C)(C)C)C2)cc(C(=O)N[C@H]2C[C@@H](C(=O)N[C@@H]3CCCc4ccccc43)N(C(=O)[C@@H](NC(=O)[C@H](C)NC)C(C)(C)C)C2)c1 [Compound 128] | > 1 µM | 0.01 µM | 0.014 µM | – |
| C#CC[C@H](NC(=O)[C@H](C)NC)C(=O)N1C[C@@H](NC(=O)c2cccc(C(=O)N[C@H]3C[C@@H](C(=O)N[C@@H]4CCCc5ccccc54)N(C(=O)[C@@H](NC(=O)[C@H](C)NC)C(C)(C)C)C3)c2)C[C@H]1C(=O)N[C@@H]1CCCc2ccccc21 [Compound H-5] | – | – | – | IC50 [4]: > 1 µM; IC50 [5]: 0.008 µM; IC50 [6]: 0.009 µM |
| CN[C@@H](C)C(=O)N[C@H](C(=O)N1C[C@@H](NC(=O)c2[nH]c(C(=O)N[C@H]3C[C@@H](C(=O)N[C@H](C)c4ccccc4)N(C(=O)[C@@H](NC(=O)[C@H](C)NC)C(C)(C)C)C3)c3c2OCCO3)C[C@H]1C(=O)N[C@H](C)c1ccccc1)C(C)(C)C [Compound P3-95] | – | – | – | IC50 [7]: > 1 µM; IC50 [8]: 0.006 µM; IC50 [9]: 0.006 µM |
| CN[C@@H](C)C(=O)N[C@H](C(=O)N1C[C@@H](NC(=O)c2cccc(C(=O)N[C@H]3C[C@@H](C(=O)NC4CCCc5cccc(F)c54)N(C(=O)[C@@H](NC(=O)[C@H](C)NC)C(C)(C)C)C3)c2)C[C@H]1C(=O)NC1CCCc2cccc(F)c21)C(C)(C)C (single isomer, unassigned) [Compound 70] | > 1 µM | 0.0011 µM | 0.0033 µM | – |
| CN[C@@H](C)C(=O)N[C@H](C(=O)N1C[C@@H](NC(=O)CCc2ccc(C(=O)N[C@H]3C[C@@H](C(=O)N[C@@H]4CCCc5ccccc54)N(C(=O)[C@@H](NC(=O)[C@H](C)NC)C(C)(C)C)C3)cc2)C[C@H]1C(=O)N[C@@H]1CCCc2ccccc21)C(C)(C)C [Compound 191] | > 1 µM | 0.013 µM | 0.012 µM | – |
| CN[C@@H](C)C(=O)N[C@@H](CCCCNC(=O)CCCCCCC(=O)NCCCC[C@H](NC(=O)[C@H](C)NC)C(=O)N1CCC[C@H]1C(=O)N[C@@H]1CCCc2ccccc21)C(=O)N1CCC[C@H]1C(=O)N[C@@H]1CCCc2ccccc21 [Compound P2-34] | – | – | – | IC50 [4]: > 1 µM; IC50 [5]: 0.04 µM; IC50 [6]: 0.064 µM |
| CN[C@@H](C)C(=O)N[C@H](C(=O)N1CCC[C@H]1C(=O)N[C@H]1c2ccccc2C[C@@H]1OCC#CC#CCO[C@H]1Cc2ccccc2[C@@H]1NC(=O)[C@@H]1CCCN1C(=O)[C@@H](NC(=O)[C@H](C)NC)C(C)(C)C)C(C)(C)C [Compound 121] | > 1 µM | 0.0013 µM | 0.0015 µM | – |
| CN[C@@H](C)C(=O)N[C@@H](CCCCCC[C@H](NC(=O)[C@H](C)NC)C(=O)N1C[C@@H](F)C[C@H]1C(=O)N[C@@H]1CCCc2ccccc21)C(=O)N1C[C@@H](F)C[C@H]1C(=O)N[C@@H]1CCCc2ccccc21 [Compound 100] | > 1 µM | 0.057 µM | 0.052 µM | – |
| CN[C@@H](C)C(=O)N[C@H](C(=O)N[C@@H](CCNC(=O)c1cccc(C(=O)N[C@H]2C[C@@H](C(=O)N[C@@H]3CCCc4ccccc43)N(C(=O)[C@@H](NC(=O)[C@H](C)NC)C3CCCCC3)C2)c1)C(=O)N[C@H](C)C(C)C)C(C)C [Compound 181] | > 1 µM | 0.037 µM | 0.072 µM | – |
| CN[C@@H](C)C(=O)N[C@@H](CCCCCC[C@H](NC(=O)[C@H](C)NC)C(=O)N1CCC[C@H]1CNC(=O)Cc1ccccc1)C(=O)N1CCC[C@H]1CNC(=O)Cc1ccccc1 [Compound 77] | > 1 µM | > 1 µM | > 1 µM | – |
| CN[C@@H](C)C(=O)N[C@H](C(=O)N1C[C@@H](Oc2cccc(CCCCc3cccc(O[C@H]4C[C@@H](C(=O)N[C@@H]5CCCc6ccccc65)N(C(=O)[C@@H](NC(=O)[C@H](C)NC)C(C)(C)C)C4)c3)c2)C[C@H]1C(=O)N[C@@H]1CCCc2ccccc21)C(C)(C)C [Compound P3-104] | – | – | – | IC50 [7]: > 1 µM; IC50 [8]: 0.042 µM; IC50 [9]: 0.042 µM |
| CN[C@@H](C)C(=O)N[C@@H](CCCCCC[C@H](NC(=O)[C@H](C)NC)C(=O)N1c2ccccc2C[C@H]1C(=O)N[C@@H]1CCCc2ccccc21)C(=O)N1c2ccccc2C[C@H]1C(=O)N[C@@H]1CCCc2ccccc21 [Compound 93] | > 1 µM | 0.299 µM | 0.327 µM | – |
| CN[C@@H](C)C(=O)N[C@H](C(=O)N1CCC[C@H]1c1cc(C(=O)OC)c(-c2cn(CC#CC#CCn3cc(-c4oc([C@@H]5CCCN5C(=O)[C@@H](NC(=O)[C@H](C)NC)C(C)(C)C)cc4C(=O)OC)c4ccccc43)c3ccccc23)o1)C(C)(C)C [Compound P4-25] | – | – | – | IC50 [4]: > 1 µM; IC50 [5]: 0.0342 µM; IC50 [6]: 0.0408 µM |
| CN[C@@H](C)C(=O)N[C@H](C(=O)N1C[C@@H](NC(=O)c2cc(C(=O)N[C@H]3C[C@@H](C(=O)N[C@H](C)c4ccccc4)N(C(=O)[C@@H](NC(=O)[C@H](C)NC)[C@@H](C)OC)C3)[nH]n2)C[C@H]1C(=O)N[C@H](C)c1ccccc1)[C@@H](C)OC [Compound P3-110] | – | – | – | IC50 [7]: > 1 µM; IC50 [8]: 0.056 µM; IC50 [9]: 0.073 µM |
| CN[C@@H](C)C(=O)N[C@@H](CCCCNC(=O)c1cccc(C(=O)N[C@H]2C[C@@H](C(=O)N[C@@H]3CCCc4ccccc43)N(C(=O)[C@@H](NC(=O)[C@H](C)NC)C(C)(C)C)C2)c1)C(=O)N1CCC[C@H]1C(=O)NC(c1ccccc1)c1ccccc1 [Compound 184] | > 1 µM | 0.027 µM | 0.076 µM | – |
| CCC1(NC(=O)[C@@H]2C[C@H](NC(=O)c3cccc(C(=O)N[C@H]4C[C@@H](C(=O)NC5(CC)CCCc6ccccc65)N(C(=O)[C@@H](NC(=O)[C@H](C)NC)C(C)(C)C)C4)c3)CN2C(=O)[C@@H](NC(=O)[C@H](C)NC)C(C)(C)C)CCCc2ccccc21 (stereo partly drawn) [Compound 51] | – | 0.104 µM | 0.081 µM | IC50 [10]: > 1 µM |
| CN[C@@H](CO)C(=O)N[C@H](C(=O)N1C[C@@H](NC(=O)c2cccc(C(=O)N[C@H]3C[C@@H](C(=O)N[C@H](C)c4ccccc4)N(C(=O)[C@@H](NC(=O)[C@H](CO)NC)C(C)(C)C)C3)c2)C[C@H]1C(=O)N[C@H](C)c1ccccc1)C(C)(C)C [Compound P3-90] | – | – | – | IC50 [7]: > 1 µM; IC50 [8]: 0.007 µM; IC50 [9]: 0.021 µM |
| CN[C@@H](C)C(=O)N[C@H](C(=O)N1C[C@@H](NC(=O)c2ccc3cc(C(=O)NCC[C@H](NC(=O)[C@@H](NC(=O)[C@H](CO)NC)C4CCCCC4)C(=O)N[C@H](C)C(C)C)ccc3c2)C[C@H]1C(=O)N[C@@H]1CCCc2ccccc21)C(C)(C)C [Compound H-10] | – | – | – | IC50 [4]: > 1 µM; IC50 [5]: 0.001 µM; IC50 [6]: 0.0009 µM |
| CCCC[C@@H](C)NC(=O)c1cc(C(=O)N[C@H]2C[C@@H](C(=O)N[C@@H]3CCCc4ccccc43)N(C(=O)[C@@H](NC(=O)[C@H](C)NC)C(C)(C)C)C2)cc(C(=O)N[C@H]2C[C@@H](C(=O)N[C@@H]3CCCc4ccccc43)N(C(=O)[C@@H](NC(=O)[C@H](C)NC)C(C)(C)C)C2)c1 [Compound 129] | – | 0.006 µM | 0.004 µM | IC50 [10]: > 1 µM |
| CN[C@@H](C)C(=O)N[C@@H](CCCCCC[C@H](NC(=O)[C@H](C)NC)C(=O)N1CC(F)(F)C[C@H]1C(=O)N[C@@H]1CCCc2ccccc21)C(=O)N1CC(F)(F)C[C@H]1C(=O)N[C@@H]1CCCc2ccccc21 [Compound 109] | > 1 µM | 0.004 µM | 0.003 µM | – |
